Test results reported in patent US9890202B2, “Peptides based on the transmembrane domain of a toll-like receptor (TLR) for treatment of TLR-mediated diseases” (Yeda Research and Development Co. Ltd., priority 2010, dated 2018).
Ends that are not written are not given here.

What was measured:
XTT cytotoxicity assay = type: cell-based; conditions: mouse, RAW264.7 murine macrophages, RAW264.7 cells, 2 hours incubation, 0.78-100 μM, read-out: LC50 (Lethal Concentration at which 50% of cells die)
Protocol: 1×10^4 cells (RAW264.7 murine macrophages, ATCC® Number-TIB-71) per well were grown over night on a 96-well plate. The following day, the media were replaced with 90 μl fresh culture medium and 10 μl solution buffer containing different concentrations of the different peptides mTLR2 TM N′-CtoA (SEQ ID NO:88), mTLR2 TM C′-CtoA (SEQ ID NO:86), mTLR1 TM N′ (SEQ ID NO:77) and mTLR1 TM C′-CtoA (SEQ ID NO:83). Peptide concentrations range from 0.78-100 μM. The cells were then incubated for 2 hours before adding to each well 50 μl of 2,3-bis[2-methoxy-4-nitro-5-sulfophenyl]-2H-tetrazolium-5-carboxanilide inner salt (XTT) reaction solution (Biological Industries). Viability was determined as described previously (Papo et al., 2004 and Papo et al., 2006). The LC50 (the concentration at which 50% of the cells die) for each peptide was obtained from the dose-dependent cell viability curves.

[1] = system: mTLR1 TM peptides (fluorescein labeled donors); assay: FRET between fluorescein and rhodamine labeled TM peptides in PC:Cholesterol LUVs; type: binding, mouse; conditions: rhodamine conjugated acceptor added to fluorescein TLR1 TM donors
Protocol: Large unilamellar vesicles (LUVs) composed of phosphatidylcholine (PC) and cholesterol (10:1, w/w), were prepared using the extrusion method as described previously (Cohen et al, 2008). The fluorescence experiments were performed with pairs of peptides using fluorescein labeled peptides as donors and rhodamine labeled peptides as acceptors. Fluorescence spectra were obtained at room temperature, with excitation set at 494 nm (10 nm slit) and emission scan at 500-600 nm (10 nm slits), by a Cary eclipse fluorescence spectrophotometer (Varian Inc., Palo Alto, Calif.). In a typical experiment, a fluorescein labeled peptide was first added from a stock solution in DMSO (final concentration of 0.1 μM peptide and 0.25% (v/v) DMSO) to a solution containing PC:Cholesterol LUVs (100 μM) in HEPES buffer. This was followed by the successive addition of rhodamine labeled peptides to a final concentration ranging from 0.025 to 0.4 μM. Fluorescence spectra were obtained before and after the addition of the rhodamine labeled peptides. Fluorescence values were corrected by subtracting the changes in emission obtained by adding HEPES only. […]
Fluorescence Resonance Energy Transfer (FRET) analysis was used for exploring the interactions of the synthetic TM peptides within large unilameler vesicles (LUVs). […]

TLR2 [2] = assay: Murine model of acute septic shock caused by LTA (TLR2 hyperactivation); type: in vivo, mice; conditions: during the whole experiment
Protocol: To examine the effect of TLR TM peptides on acute septic shock driven by TLR2 hyperactivation we have used a murine model as previously described (Meng et al., 2004). Briefly, 12 weeks old C57 Black female mice (supplied by Harlan) were treated with 100 μg of LTA injected IP in a saline solution (pH 6.5) containing 200 μg/ml of D-galactoseamine (Calbiochem). Treated mice received two injections of peptide at doses of 1, 5 and 10 mg/kg. First injection was given at the time of LTA injection, second injection was given 2 hrs (1 mg/kg) or 12 hrs (5 and 10 mg/kg) later. Animals were monitored for survival for 96 hours after LTA injection. Peptides used for in-vivo experiments were treated twice with 20% acetic acid in order to replace the trifluoroacetate anion added during HPLC purification. For all groups n=8.
In order to test the activity of our peptides in-vivo, we have used a murine model for acute septic shock caused by hyperactivation of TLR2. Mice were injected i.p. with 100 μg of LTA and then treated with mTLR2 TM C′-CtoA peptide (SEQ ID NO:86) in different regimes (see materials and methods section (xi)) or with saline only.

LNCaP = assay: Toxicity to LNCaP cell line; type: cell-based, human; conditions: up to 100 μM (maximal concentration tested)
Protocol: (§1) We synthesized peptides corresponding to either the N-terminus or C-terminus domains of the TM domains of human TLR1, 2 and 5. Each TM domain was divided into two overlapping sequences (Table 2). Activity and toxicity experiments were performed on a peptide corresponding to the C-terminus domain of the TM domain of human TLR2, including the adjacent 5 amino acids from the putative intracellular domain (SEQ ID NO:83, hTLR2-C in Table 2 below, extended with two lysine residues at each of its termini to increase solubility). The peptide was not toxic to either PC3 or LNCaP cell lines at a concentration of up to 100 μM (the maximal concentration tested, data not shown).

PC3 = assay: Toxicity to PC3 cell line; type: cell-based, human; conditions: up to 100 μM (maximal concentration tested)
Protocol: as §1

PC3 cells = assay: mRNA expression of TGFβ and VEGF in cells activated with LPS/LTA; type: cell-based, human; conditions: peptide 20 μM, LPS/LTA stimulation
Protocol: FIGS. 13A-B show mRNA expression of TGFβ (B) and VEGF (A) in LNCaP and PC3 cells in the absence or presence of LPS/LTA and the peptide hTLR2 TM C′ (SEQ ID NO:83) at a concentration of 20 μM.
One of the main features of metastatic cells is their ability to influence their environment due to the secretion of various cytokines. Two of the most influential cytokines are VEGF which induces the formation of blood vessels, and TGFβ which e.g. induces tolerance of immune cells and inhibits apoptosis. We therefore determined the expression of the mRNA of these cytokines in the cells upon their activation with LPS and LTA and the effect of the peptide on the activation. […] These findings lead us to the hypothesis that the presence of the TLRs on PC3 cells contribute to the severity (aggressiveness) of the cancer and its ability to form metastases. Thus, the TLR TM peptides of the invention can be used as new diagnostic biomarkers, which can indicate the rate of growth and the ability of the cells to form metastases.

TLR2 [3] = assay: NFkB luciferase reporter in PC3 cells activated with LTA; type: cell-based, human; conditions: peptide 20 μM, LTA 50 μg/ml
Protocol: (§2) Cells were transfected with a luciferase plasmid under the transcriptional control of NFkB. Upon activation, NFkB trans-locates to the nucleus and induces the expression of luciferase. Cells were activated in the presence of LTA (50 μg/ml) or LPS (1 μg/ml) for 24 hours and were incubated for 2 hours with the hTLR2 TM C′ peptide (SEQ ID NO:83) ([…]) prior to the addition of the activator and washed twice with PBS. Detection of Luc expression was performed by the Steady-Glo assay kit.
(§3) The NFkB responsive element has been widely researched and is known to serve as a specific indication for the presence of the NFkB molecule inside the nucleus. Such a translocation occurs upon activation of the signaling cascade of TLRs, which leads to targeted transcription. This DNA element was introduced into a Luciferase expressing plasmid upstream to the gene thus generating a reporter plasmid for the presence of NFkB in the nucleus. Cells were transfected with the plasmid and 24 hours later were treated with LPS/LTA to induce the signaling cascade through TLR4 and TLR2, respectively. To validate activation, the levels of Luc expression were evaluated using the Steady-Glo kit (Promega) according to manufactures instructions.

TLR4 = assay: NFkB luciferase reporter in PC3 cells activated with LPS; type: cell-based, human; conditions: peptide 20 μM, LPS 1 μg/ml
Protocol: as §2, §3

## KKLAVTGAFLALYFDLPWKK-NH2 [mTLR1 C′ TM (C to A)]
XTT cytotoxicity assay
  CC50 at 2 h: 50 µM

## KKLILLVGALCHHFHGLWKK-NH2 [mTLR2 C′ TM, kkLILLVGALCHHFHGLWkk]
XTT cytotoxicity assay
  CC50 at 2 h: 50 µM

## KKLAVTGAFLASYFDLPWKK-NH2 [mTLR1 C′ TM (C to A + L605S), kkLAVTGAFLASYFDLPWkk]
XTT cytotoxicity assay
  CC50 at 2 h: > 100 µM

## GLRILLLKV-NH2 (not fully specified; printed as GLRILLLKV-NH2) [Cp, the core TM peptide of TCRα, negative control]
[1]
  fluorescence signal decrease (FRET), negative control: no significant fluorescence signal decrease

## KKLILLVGALAHHFHGLWKK-NH2 [mTLR2 C′ TM (C to A)]
TLR2 [2]
  adverse effects in treated mice: no noticeable adverse effects
XTT cytotoxicity assay
  CC50 at 2 h: 50 µM

## KKLAVTGAFLCLYFDLPWKK-NH2 [mTLR1 C′ TM, kkLAVTGAFLCLYFDLPWkk]
XTT cytotoxicity assay
  CC50 at 2 h: > 100 µM

## KKLLTVTIGATMLVLAVTGAKK-NH2 [mTLR1 N′ TM]
XTT cytotoxicity assay
  CC50 at 2 h: > 100 µM

## KKLILLTGVLCHRFHGLWKK-NH2 [hTLR2 TM C′]
LNCaP
  toxicity: not toxic
PC3
  toxicity: not toxic
PC3 cells
  levels of expression of TGFβ and VEGF mRNA: drop in the levels of expression
TLR2 [3]
  inhibition of Luc expression: 40%
TLR4
  inhibition of activation (Luc expression): could not inhibit

## KKALVSGVAAALLLLILLVGKK-NH2 [mTLR2 N′ TM (C to A)]
XTT cytotoxicity assay
  CC50 at 2 h: > 100 µM
